From PMC9516332 (Frontiers in Oncology, 2022)
Read-outs that look alike come from different tables or passages of the source.

What was measured:
[1] = tested on: AP-1060 (ETV6-NTRK3); assay: Cell viability assay; conditions: read-out: IC50 in cell proliferation assay
[2] = tested on: 134 cancer cell lines; assay: Cell viability assay (ATPlite, 72 hours), IC50 on cancer cell line panel

## CN1CCN(c2ccc(C(=O)Nc3n[nH]c4ccc(Cc5cc(F)cc(F)c5)cc34)c(NC3CCOCC3)c2)CC1 [entrectinib]
[1]
  IC50: 0.035 µM
[2]; HEC-6, read-out: IC50 in cell proliferation assay, HEC-6 cell line (EGFR p.A289V)
  IC50: 6.83 µM
[2]; Homo sapiens, 769-P, read-out: IC50 in cell proliferation assay, cell line 769-P
  IC50: 6.69 µM
[2]; Homo sapiens, 786-0, read-out: IC50 in cell proliferation assay, cell line 786-O
  IC50: 5.12 µM
[2]; Homo sapiens, A 172, read-out: IC50 in cell proliferation assay, cell line A-172
  IC50: 4.96 µM
[2]; Homo sapiens, A204, read-out: IC50 in cell proliferation assay, cell line A-204
  IC50: 5.98 µM
[2]; Homo sapiens, A498, read-out: IC50 in cell proliferation assay, cell line A-498
  IC50: 7.97 µM
[2]; Homo sapiens, A549, read-out: IC50 in cell proliferation assay, cell line A-549
  IC50: 8.78 µM
[2]; Homo sapiens, A704, read-out: IC50 in cell proliferation assay, cell line A-704
  IC50: 6.87 µM
[2]; Homo sapiens, A-375, read-out: IC50 in cell proliferation assay, cell line A-375 (BRAF p.V600E)
  IC50: 5.84 µM
[2]; Homo sapiens, A-427, read-out: IC50 in cell proliferation assay, cell line A-427
  IC50: 3.49 µM
[2]; Homo sapiens, ACHN, read-out: IC50 in cell proliferation assay, cell line ACHN
  IC50: 5.79 µM
[2]; Homo sapiens, AN3-CA, read-out: IC50 in cell proliferation assay, cell line AN3-CA (FGFR2 p.N549K)
  IC50: 3.78 µM
[2]; Homo sapiens, ASPC1, read-out: IC50 in cell proliferation assay, cell line AsPC-1
  IC50: 7.99 µM
[2]; Homo sapiens, AU565, read-out: IC50 in cell proliferation assay, cell line AU565 (ERBB2 amplification)
  IC50: 8.63 µM
[2]; Homo sapiens, BT-20, read-out: IC50 in cell proliferation assay, cell line BT-20
  IC50: 10.7 µM
[2]; Homo sapiens, BT-474, read-out: IC50 in cell proliferation assay, cell line BT-474 (ERBB2 amplification)
  IC50: 6.15 µM
[2]; Homo sapiens, BT-549, read-out: IC50 in cell proliferation assay, cell line BT-549
  IC50: 7.41 µM
[2]; Homo sapiens, BXPC-3, read-out: IC50 in cell proliferation assay, cell line BxPC-3
  IC50: 6.09 µM
[2]; Homo sapiens, C-33-A, read-out: IC50 in cell proliferation assay, cell line C-33 A
  IC50: 5.23 µM
[2]; Homo sapiens, CAL-27, read-out: IC50 in cell proliferation assay, cell line CAL-27
  IC50: 5.15 µM
[2]; Homo sapiens, CCF-STTG1, read-out: IC50 in cell proliferation assay, cell line CCF-STTG1
  IC50: 10.7 µM
[2]; Homo sapiens, CCRF-CEM, read-out: IC50 in cell proliferation assay, cell line CCRF-CEM
  IC50: 9.03 µM
[2]; Homo sapiens, COLO 205, read-out: IC50 in cell proliferation assay, cell line COLO 205 (BRAF p.V600E)
  IC50: 7.72 µM
[2]; Homo sapiens, COLO-829, read-out: IC50 in cell proliferation assay, cell line COLO 829 (BRAF p.V600E)
  IC50: 8.95 µM
[2]; Homo sapiens, DLD-1, read-out: IC50 in cell proliferation assay, cell line DLD-1
  IC50: 10.5 µM
[2]; Homo sapiens, DU-4475, read-out: IC50 in cell proliferation assay, cell line DU4475 (BRAF p.V600E)
  IC50: 8.22 µM
[2]; Homo sapiens, Daoy, read-out: IC50 in cell proliferation assay, cell line Daoy
  IC50: 5.1 µM
[2]; Homo sapiens, DoTc2-4510, read-out: IC50 in cell proliferation assay, cell line DoTc2 4510
  IC50: 4.69 µM
[2]; Homo sapiens, EOL1, read-out: IC50 in cell proliferation assay, cell line EoL-1 (FIP1L1-PDGFRA)
  IC50: 0.512 µM
[2]; Homo sapiens, FaDu, read-out: IC50 in cell proliferation assay, cell line FaDu
  IC50: 5.64 µM
[2]; Homo sapiens, G-361, read-out: IC50 in cell proliferation assay, cell line G-361 (BRAF p.V600E)
  IC50: 4.67 µM
[2]; Homo sapiens, HCC827, read-out: IC50 in cell proliferation assay, cell line HCC827 (EGFR exon19del)
  IC50: 2.98 µM
[2]; Homo sapiens, HCC4006, read-out: IC50 in cell proliferation assay, cell line HCC4006 (EGFR exon19del)
  IC50: 4.96 µM
[2]; Homo sapiens, HCT-15, read-out: IC50 in cell proliferation assay, cell line HCT 15
  IC50: 7.64 µM
[2]; Homo sapiens, HCT-116, read-out: IC50 in cell proliferation assay, cell line HCT 116
  IC50: 4.66 µM
[2]; Homo sapiens, HEC-1, read-out: IC50 in cell proliferation assay, HEC-1 cell line
  IC50: 3.73 µM
[2]; Homo sapiens, HEC-1B, read-out: IC50 in cell proliferation assay, HEC-1-B cell line (EGFR p.A864V)
  IC50: 2.24 µM
[2]; Homo sapiens, HL-60, read-out: IC50 in cell proliferation assay, HL-60 cell line
  IC50: 5.68 µM
[2]; Homo sapiens, HT, read-out: IC50 in cell proliferation assay, HT cell line
  IC50: 12 µM
[2]; Homo sapiens, HT-1080, read-out: IC50 in cell proliferation assay, HT-1080 cell line
  IC50: 7.36 µM
[2]; Homo sapiens, Hs746T, read-out: IC50 in cell proliferation assay, Hs 746.T cell line (MET exon14skip + amplification)
  IC50: 10.9 µM
[2]; Homo sapiens, Hs-578T, read-out: IC50 in cell proliferation assay, Hs 578T cell line
  IC50: 7.05 µM
[2]; Homo sapiens, HuTu80, read-out: IC50 in cell proliferation assay, HuTu 80 cell line
  IC50: 3.57 µM
[2]; Homo sapiens, J82, read-out: IC50 in cell proliferation assay, J82 cell line
  IC50: 7.16 µM
[2]; Homo sapiens, Jurkat E6.1, read-out: IC50 in cell proliferation assay, Jurkat E6.1 cell line
  IC50: 8.24 µM
[2]; Homo sapiens, K562, read-out: IC50 in cell proliferation assay, K-562 cell line
  IC50: 5.82 µM
[2]; Homo sapiens, KATO III, read-out: IC50 in cell proliferation assay, KATO III cell line (FGFR2 amplification)
  IC50: 1.43 µM
[2]; Homo sapiens, KG-1, read-out: IC50 in cell proliferation assay, KG-1 cell line (FGFR1OP2-FGFR1)
  IC50: 1.53 µM
[2]; Homo sapiens, KLE, read-out: IC50 in cell proliferation assay, KLE cell line
  IC50: 4.33 µM
[2]; Homo sapiens, KMS-11, read-out: IC50 in cell proliferation assay, KMS-11 cell line (FGFR3 p.Y373C)
  IC50: 4.82 µM
[2]; Homo sapiens, KU812, read-out: IC50 in cell proliferation assay, Ku812 cell line
  IC50: 4.72 µM
[2]; Homo sapiens, Kasumi 1, read-out: IC50 in cell proliferation assay, Kasumi-1 cell line (KIT p.N822K)
  IC50: 3.68 µM
[2]; Homo sapiens, LC-2-ad, read-out: IC50 in cell proliferation assay, LC-2/ad cell line (CCDC6-RET)
  IC50: 1.81 µM
[2]; Homo sapiens, LNCaP-Clone-FGC, read-out: IC50 in cell proliferation assay, LNCaP clone FGC cell line
  IC50: 10.9 µM
[2]; Homo sapiens, LS174T, read-out: IC50 in cell proliferation assay, LS174T cell line
  IC50: 4.9 µM
[2]; Homo sapiens, LS-411N, read-out: IC50 in cell proliferation assay, LS411N cell line (BRAF p.V600E)
  IC50: 9.55 µM
[2]; Homo sapiens, LoVo, read-out: IC50 in cell proliferation assay, LoVo cell line
  IC50: 9.52 µM
[2]; Homo sapiens, MCF7, read-out: IC50 in cell proliferation assay, MCF-7 cell line
  IC50: 3.83 µM
[2]; Homo sapiens, MDA-MB-231, read-out: IC50 in cell proliferation assay, MDA-MB-231 cell line
  IC50: 4.59 µM
[2]; Homo sapiens, MDA-MB-453, read-out: IC50 in cell proliferation assay, MDA-MB-453 cell line
  IC50: 11.5 µM
[2]; Homo sapiens, MDA-MB-468, read-out: IC50 in cell proliferation assay, MDA-MB-468 cell line
  IC50: 11 µM
[2]; Homo sapiens, MG-63, read-out: IC50 in cell proliferation assay, MG-63 cell line
  IC50: 3.8 µM
[2]; Homo sapiens, MIA PaCa-2, read-out: IC50 in cell proliferation assay, MIA PaCa-2 cell line
  IC50: 5.16 µM
[2]; Homo sapiens, MKN-45, read-out: IC50 in cell proliferation assay, MKN45 cell line (MET amplification)
  IC50: 11.8 µM
[2]; Homo sapiens, MOLM-13, read-out: IC50 in cell proliferation assay, MOLM-13 cell line (FLT3 ITD)
  IC50: 0.214 µM
[2]; Homo sapiens, MOLT-4, read-out: IC50 in cell proliferation assay, MOLT-4 cell line
  IC50: 11.3 µM
